According to BindingDB's records for doi:10.3109/14756366.2011.599029 (Dumlupinar University, 2012):

Tests used:
Carbonic anhydrase 1 = Carbonic anhydrase 1 (Homo sapiens, UniProt P00915); experiment: hCA Activity Assay
Carbonic anhydrase 2 = Carbonic anhydrase 2 (Homo sapiens, UniProt P00918); experiment: hCA Activity Assay

Sequence of Carbonic anhydrase 1 (P00915 whole entry): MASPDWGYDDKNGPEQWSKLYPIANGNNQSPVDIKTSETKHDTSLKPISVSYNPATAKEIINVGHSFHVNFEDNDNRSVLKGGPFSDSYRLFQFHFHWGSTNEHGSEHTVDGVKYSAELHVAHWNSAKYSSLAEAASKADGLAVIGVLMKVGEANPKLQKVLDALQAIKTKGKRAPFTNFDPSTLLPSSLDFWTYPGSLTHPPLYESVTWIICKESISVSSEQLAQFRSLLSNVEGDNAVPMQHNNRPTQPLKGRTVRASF

Ki (Carbonic anhydrase 1) [nM]	Ki (Carbonic anhydrase 2) [nM]	Compound
55	130	CC1(C)CC(=O)C2=C(C1)N(c1ccc(S(N)(=O)=O)cc1)C1=C(C(=O)CC(C)(C)C1)C2c1ccccn1 [4-(3,3,6,6-tetramethyl-1,8-dioxo-9-(pyridin-2-yl)-1,2,3,4,5,6,7,8-octahydroacridine-10(9H)-yl)benzenesulfonamide (6)]
220	35	CC1(C)CCC2=C(C1=O)C(c1ccc(Cl)cc1Cl)C1=C(CCC(C)(C)C1=O)N2c1ccc(S(N)(=O)=O)cc1 [4-(9-(2,4-Dichlorophenyl)-2,2,7,7-tetramethyl 1,8-dioxo 1,2,3,4,5,6,7,8-octahydroacridine 10(9H)-yl)benzenesulfonamide (12)]
15	1.5	COc1ccc(C2C3=C(CCCC3=O)N(c3ccc(S(N)(=O)=O)cc3)C3=C2C(=O)CCC3)c(OC)c1 [4-(9-(2,4-dimethoxyphenyl)-1,8-dioxo-1,2,3,4,5,6,7,8-octahydroacridine-10(9H)-yl) benzenesulfonamide (7)]
205	120	COc1ccc(C2C3=C(CCC(C)(C)C3=O)N(c3ccc(S(N)(=O)=O)cc3)C3=C2C(=O)C(C)(C)CC3)cc1OC [4-(9-(3,4-Dimethoxyphenyl)-2,2,7,7-tetramethyl 1,8-dioxo 1,2,3,4,5,6,7,8-octahydroacridine 10(9H)-yl)benzenesulfonamide (11)]
135	95	CC1(C)CCC2=C(C1=O)C(c1ccc(C#N)cc1)C1=C(CCC(C)(C)C1=O)N2c1ccc(S(N)(=O)=O)cc1 [4-(9-(4-Cyanophenyl)-2,2,7,7-tetramethyl 1,8-dioxo 1,2,3,4,5,6,7,8-octahydroacridine 10(9H)-yl)benzenesulfonamide (9)]
520	250	CC1(C)CC(=O)C2=C(C1)N(c1ccc(S(N)(=O)=O)cc1)C1=C(C(=O)CC(C)(C)C1)C2c1ccc(C#N)cc1 [4-(9-(4-Cyanophenyl)-3,3,6,6-tetramethyl-1,8-dioxo-1,2,3,4,5,6,7,8-octahydroacridine-10(9H)-yl)benzenesulfonamide (4)]
45	125	CC1(C)CCC2=C(C1=O)C(c1ccc(O)cc1)C1=C(CCC(C)(C)C1=O)N2c1ccc(S(N)(=O)=O)cc1 [4-(9-(4-Hydroxyphenyl)-2,2,7,7-tetramethyl 1,8-dioxo 1,2,3,4,5,6,7,8-octahydroacridine 10(9H)-yl)benzenesulfonamide (10)]
75	150	COc1ccc(C2C3=C(CC(C)(C)CC3=O)N(c3ccc(S(N)(=O)=O)cc3)C3=C2C(=O)CC(C)(C)C3)cc1 [4-(9-(4-Methoxyphenyl)-3,3,6,6-tetramethyl-1,8-dioxo-1,2,3,4,5,6,7,8-octahydroacridine-10(9H)-yl)benzenesulfonamide (5)]
8.5	7	COc1ccc(C2C3=C(CCCC3=O)N(c3ccc(S(N)(=O)=O)cc3)C3=C2C(=O)CCC3)cc1 [4-(9-(4-methoxyphenyl)-1,8-dioxo-1,2,3,4,5,6,7,8-octahydroacridine-10(9H)-yl)benzene sulfonamide (8)]
